Patent publication US11053204B2, “Pyrimidinyloxy benzene derivatives as herbicides” (FMC Corporation, priority 2015, dated 2021)

Assays:
Type in all cases: in vivo
[1] = test system: chickweed (common chickweed, Stellaria media); experiment: Test C postemergence, plant response rating; conditions: for Plant response rating, Chickweed: scale 0 to 100; for Chickweed plant response rating: scale 0 to 100 (0 no effect, 100 complete control)
Method in brief: (§1)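 After sowing in loam–sand blend or silt loam, pots were sprayed preemergence; separately grown 1- to 4-leaf plants were sprayed postemergence. Following 13 to 15 d under greenhouse conditions, injury was rated visually on a 0 to 100 scale.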

[2] = test system: ryegrass, Italian (Italian ryegrass, Lolium multiflorum); experiment: Test C postemergence, plant response rating; conditions: for Plant response rating, Ryegrass, Italian: scale 0 to 100; for Ryegrass, Italian plant response rating: scale 0 to 100 (0 no effect, 100 complete control)
Method in brief: as §1

[3] = test system: oat, wild (wild oat Avena fatua); experiment: Test C postemergence, plant response rating; conditions: for Plant response rating, Oat, Wild: scale 0 to 100; for Oat, Wild plant response rating: scale 0 to 100 (0 no effect, 100 complete control)
Method in brief: as §1

[4] = test system: galium (catchweed bedstraw, Galium aparine); experiment: Test C postemergence, plant response rating; conditions: for Plant response rating, Galium: scale 0 to 100; for Galium plant response rating: scale 0 to 100 (0 no effect, 100 complete control)
Method in brief: as §1

soybean (Glycine max) = experiment: Test C postemergence, plant response rating; conditions: for Plant response rating, Soybean: scale 0 to 100; for Soybean plant response rating: scale 0 to 100 (0 no effect, 100 complete control)
Method in brief: as §1

[5] = test system: nutsedge, yellow (yellow nutsedge, Cyperus esculentus); experiment: Test C postemergence, plant response rating; conditions: for Plant response rating, Nutsedge, Yellow: scale 0 to 100; for Nutsedge, Yellow plant response rating: scale 0 to 100 (0 no effect, 100 complete control)
Method in brief: as §1

[6] = test system: lambsquarters (Chenopodium album); experiment: Test C postemergence, plant response rating; conditions: for Plant response rating, Lambsquarters: scale 0 to 100; for Lambsquarters plant response rating: scale 0 to 100 (0 no effect, 100 complete control)
Method in brief: as §1

corn (Zea mays) = experiment: Test C postemergence, plant response rating; conditions: for Plant response rating, Corn: scale 0 to 100; for Corn plant response rating: scale 0 to 100 (0 no effect, 100 complete control)
Method in brief: as §1

[7] = test system: blackgrass (Alopecurus myosuroides); experiment: Test C postemergence, plant response rating; conditions: for Plant response rating, Blackgrass: scale 0 to 100; for Blackgrass plant response rating: scale 0 to 100 (0 no effect, 100 complete control)
Method in brief: as §1

[8] = test system: foxtail, giant (giant foxtail, Setaria faberii); experiment: Test C postemergence, plant response rating; conditions: for Plant response rating, Foxtail, Giant: scale 0 to 100; for Foxtail, Giant plant response rating: scale 0 to 100 (0 no effect, 100 complete control)
Method in brief: as §1

[9] = test system: wheat (winter wheat, Triticum aestivum); experiment: Test C postemergence, plant response rating; conditions: for Plant response rating, Wheat: scale 0 to 100; for Wheat plant response rating: scale 0 to 100 (0 no effect, 100 complete control)
Method in brief: as §1

[10] = test system: crabgrass, large (large crabgrass, Digitaria sanguinalis); experiment: Test C postemergence, plant response rating; conditions: for Plant response rating, Crabgrass, Large: scale 0 to 100; for Crabgrass, Large plant response rating: scale 0 to 100 (0 no effect, 100 complete control)
Method in brief: as §1

kochia (Kochia scoparia) = experiment: Test A preemergence, visual injury rating; conditions: 0 to 100 scale (0 no effect, 100 complete control)
Method in brief: (§2)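 Greenhouse pot test, loam/sand soil. Formulation: non-phytotoxic solvent mix plus surfactant. Pre: directed spray onto soil after sowing. Post: plants at 1–2 leaf, 2–10 cm. Rated visually vs untreated controls at ~10 d, 0 (no effect) to 100 (complete control).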

[11] = test system: ragweed (common ragweed, Ambrosia elatior); experiment: Test A preemergence, visual injury rating; conditions: 0 to 100 scale (0 no effect, 100 complete control)
Method in brief: as §2

[12] = test system: giant foxtail (Setaria faberii); experiment: Test A preemergence, visual injury rating; conditions: 0 to 100 scale (0 no effect, 100 complete control)
Method in brief: as §2

[13] = test system: barnyardgrass (Echinochloa crus-galli); experiment: Test A preemergence, visual injury rating; conditions: 0 to 100 scale (0 no effect, 100 complete control)
Method in brief: as §2

[14] = test system: Italian ryegrass (Lolium multiflorum); experiment: Test A preemergence, visual injury rating; conditions: 0 to 100 scale (0 no effect, 100 complete control)
Method in brief: as §2

[15] = test system: pigweed (Amaranthus retroflexus); experiment: Test A preemergence, visual injury rating; conditions: 0 to 100 scale (0 no effect, 100 complete control)
Method in brief: as §2

With `O=C(OCC(F)(F)F)c1c(Br)cccc1Oc1ncc(Cl)cn1` [Compound 35] the “Plant response rating, Chickweed” value ([1]; 16 g ai/ha) was 5, the “Plant response rating, Chickweed” value ([1]; 31 g ai/ha) was 40 and the “Chickweed plant response rating” value ([1]; 62 g ai/ha) was 45. The “Chickweed plant response rating” value ([1]; 125 g ai/ha) was 50, the “Plant response rating, Ryegrass, Italian” value ([2]; 16 g ai/ha) was 0 and the “Plant response rating, Ryegrass, Italian” value ([2]; 31 g ai/ha) was 0. For the same compound, the “Ryegrass, Italian plant response rating” value ([2]; 62 g ai/ha) was 5, the “Ryegrass, Italian plant response rating” value ([2]; 125 g ai/ha) was 5 and the “Plant response rating, Oat, Wild” value ([3]; 16 g ai/ha) was 0. The “Plant response rating, Oat, Wild” value ([3]; 31 g ai/ha) was 0, the “Oat, Wild plant response rating” value ([3]; 62 g ai/ha) was 0 and the “Oat, Wild plant response rating” value ([3]; 125 g ai/ha) was 0. The “Plant response rating, Galium” value ([4]; 16 g ai/ha) was 35, the “Plant response rating, Galium” value ([4]; 31 g ai/ha) was 35 and the “Galium plant response rating” value ([4]; 62 g ai/ha) was 55. The “Galium plant response rating” value ([4]; 125 g ai/ha) was 60, the “Plant response rating, Soybean” value (soybean (Glycine max); 16 g ai/ha) was 25 and the “Plant response rating, Soybean” value (soybean (Glycine max); 31 g ai/ha) was 25. For the same compound, the “Soybean plant response rating” value (soybean (Glycine max); 62 g ai/ha) was 35, the “Soybean plant response rating” value (soybean (Glycine max); 125 g ai/ha) was 35 and the “Plant response rating, Nutsedge, Yellow” value ([5]; 16 g ai/ha) was 0. The “Plant response rating, Nutsedge, Yellow” value ([5]; 31 g ai/ha) was 0, the “Nutsedge, Yellow plant response rating” value ([5]; 62 g ai/ha) was 0 and the “Nutsedge, Yellow plant response rating” value ([5]; 125 g ai/ha) was 5. For the same compound, the “Plant response rating, Lambsquarters” value ([6]; 16 g ai/ha) was 50, the “Plant response rating, Lambsquarters” value ([6]; 31 g ai/ha) was 40 and the “Lambsquarters plant response rating” value ([6]; 62 g ai/ha) was 65. The “Lambsquarters plant response rating” value ([6]; 125 g ai/ha) was 70, the “Plant response rating, Corn” value (corn (Zea mays); 16 g ai/ha) was 5 and the “Plant response rating, Corn” value (corn (Zea mays); 31 g ai/ha) was 10. For the same compound, the “Corn plant response rating” value (corn (Zea mays); 62 g ai/ha) was 20, the “Corn plant response rating” value (corn (Zea mays); 125 g ai/ha) was 20 and the “Plant response rating, Blackgrass” value ([7]; 16 g ai/ha) was 0. For the same compound, the “Plant response rating, Blackgrass” value ([7]; 31 g ai/ha) was 0, the “Blackgrass plant response rating” value ([7]; 62 g ai/ha) was 10 and the “Blackgrass plant response rating” value ([7]; 125 g ai/ha) was 10. The “Plant response rating, Foxtail, Giant” value ([8]; 16 g ai/ha) was 5, the “Plant response rating, Foxtail, Giant” value ([8]; 31 g ai/ha) was 10 and the “Foxtail, Giant plant response rating” value ([8]; 62 g ai/ha) was 10. For the same compound, the “Foxtail, Giant plant response rating” value ([8]; 125 g ai/ha) was 20, the “Plant response rating, Wheat” value ([9]; 16 g ai/ha) was 0 and the “Plant response rating, Wheat” value ([9]; 31 g ai/ha) was 0. The “Wheat plant response rating” value ([9]; 62 g ai/ha) was 0, the “Wheat plant response rating” value ([9]; 125 g ai/ha) was 0 and the “Plant response rating, Crabgrass, Large” value ([10]; 16 g ai/ha) was 10. For the same compound, the “Plant response rating, Crabgrass, Large” value ([10]; 31 g ai/ha) was 10, the “Crabgrass, Large plant response rating” value ([10]; 62 g ai/ha) was 15 and the “Crabgrass, Large plant response rating” value ([10]; 125 g ai/ha) was 10. For the same compound, the “Kochia plant response rating” value (kochia (Kochia scoparia); 125 g ai/ha) was 30, the “Kochia plant response rating” value (kochia (Kochia scoparia); 500 g ai/ha) was 80 and the “Ragweed plant response rating” value ([11]; 125 g ai/ha) was 0. The “Ragweed plant response rating” value ([11]; 500 g ai/ha) was 0, the “Foxtail, Giant plant response rating” value ([12]; 125 g ai/ha) was 100 and the “Foxtail, Giant plant response rating” value ([12]; 500 g ai/ha) was 100. For the same compound, the “Barnyardgrass plant response rating” value ([13]; 125 g ai/ha) was 70, the “Barnyardgrass plant response rating” value ([13]; 500 g ai/ha) was 90 and the “Ryegrass, Italian plant response rating” value ([14]; 125 g ai/ha) was 0. The “Ryegrass, Italian plant response rating” value ([14]; 500 g ai/ha) was 30, the “Pigweed plant response rating” value ([15]; 125 g ai/ha) was 100 and the “Pigweed plant response rating” value ([15]; 500 g ai/ha) was 100.
